Results on four molecules are retold here after publication PMC11952846, “The sterol-regulating human ARV1 binds cholesterol and phospholipids through its conserved ARV1 homology domain” (The Journal of Biological Chemistry, 2025).

pEC50: −log10 of the molar value.

In assay [1] the target is T1, GST-ARV1-N98 K54/K59A (Homo sapiens, UniProt Q9H2C2, K54A/K59A).
T1 construct: Expresses amino-terminal 98 amino acids of ARV1; made in house; host or cells: E. coli BL21 (pGEX-4T1)
The assay can be described thus: Liposome binding assay, site-directed mutant. To be noted: PC:PL, sulfatide liposomes.

The target of assay [2] is T2, GST-ARV1-N98 N94Q (Homo sapiens, UniProt Q9H2C2, N94Q).
T2 construct: Expresses amino-terminal 98 amino acids of ARV1; made in house; host or cells: E. coli BL21 (pGEX-4T1)
T2 sequence (Q9H2C2 1-98 N94Q): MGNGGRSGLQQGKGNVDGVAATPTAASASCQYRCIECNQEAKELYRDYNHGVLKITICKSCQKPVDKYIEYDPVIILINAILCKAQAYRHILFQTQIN
The assay can be described thus: Liposome binding assay, site-directed mutant. To be noted: PI(4)P liposomes.

Assay [3] has as its target T3, 6XHIS-ARV1-N98 (Homo sapiens, UniProt Q9H2C2).
T3 construct: made in house; host or cells: E. coli BL21
T3 sequence (Q9H2C2 1-98): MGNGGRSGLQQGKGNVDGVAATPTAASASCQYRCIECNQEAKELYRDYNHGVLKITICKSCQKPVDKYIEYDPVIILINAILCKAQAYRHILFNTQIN
The assay is described as follows: HTRF phospholipid lipid-binding assay. To be noted: biotinylated lipid (Bio-PL) titrated, 0.75 μM protein; lipid labels mean the biotinylated lipids. The source says:
An HTRF assay was developed for 6XHIS-ARV1-N98-lipid binding. HTRF measures analyte interactions through fluorescence resonance energy transfer technology and time-resolved measurements ([53]). The interaction between two molecules can be quantified through binding each individual molecule involved with a fluorescent label and then analyzing the transfer of energy between the initial donor fluorophore and the secondary acceptor fluorophore. Following excitation of the first fluorophore, transfer of energy can only occur if the molecules bound with the fluorescent tags are within proximity to each other.
Assays were plated in 384-well flat bottom microplates (Greiner Bio, catalog #784075-25). Proteins were diluted using binding buffer (20 mM Hepes buffer, pH 7.2, containing 0.1% BSA, and 0.01% Tween20) to a stock concentration of 0.75 μM, and biotinylated phospholipids were dispensed, dried under nitrogen gas, and resuspended in binding buffer to a stock concentration of 50 μM. The lipid stock solution was diluted by 1:2 for a series of 12 serial dilutions. For the assay, in sequential order, 6 μl of binding buffer was loaded into the plate in triplicate for each dilution of phospholipid. To this, 2 μl of 0.75 μM 6XHIS-ARV1-N98 was added, followed by 2 μl of biotinylated phospholipid. Immediately following each addition loaded into the plate, the plate was centrifuged for 1 min at 1000 rpm to bring the contents to the bottom of the well. Next, detection antibodies were mixed with detection buffer (20 mM Hepes buffer, pH 8.5, containing 0.01% BSA and 200 mM KF). […] Plates were read on a PerkinElmer EnVision Xcite Multilabel plate reader.
Curves were logarithmically transformed and normalized to a common scale before being fit with a nonlinear regression of the agonist against the normalized response. […] For phospholipid competition analysis, IC50; M values were determined using nonlinear regression of the inhibitor against normalized response.

In assay [4] the target is T4, GST-ARV1-N98 E70A (Homo sapiens, UniProt Q9H2C2, E70A).
T4 construct: Expresses amino-terminal 98 amino acids of ARV1; made in house; host or cells: E. coli BL21 (pGEX-4T1)
T4 sequence (Q9H2C2 1-98 E70A): as the sequence (Q9H2C2 1-98 N94Q) above, with E70A, Q94N counted along it
The assay is described as follows: Liposome binding assay, site-directed mutant. To be noted: PE liposomes.

Assay [5] addresses T5, GST-ARV1-N98 K84A (Homo sapiens, UniProt Q9H2C2, K84A).
T5 construct: Expresses amino-terminal 98 amino acids of ARV1; made in house; host or cells: E. coli BL21 (pGEX-4T1)
The assay can be described thus: Liposome binding assay, site-directed mutant. To be noted: PE liposomes.

T1 sequence (Q9H2C2 1-98 K54A/K59A): as the sequence (Q9H2C2 1-98 N94Q) above, with K54A, K59A, Q94N counted along it
T5 sequence (Q9H2C2 1-98 K84A): as the sequence (Q9H2C2 1-98 N94Q) above, with K84A, Q94N counted along it

Regarding `CCCCCCCC/C=C\CCCCCCCC(=O)OC[C@H](COP(=O)(O)OCC(O)CO)OC(=O)CCCCCCC/C=C\CCCCCCCC` (stereo partly drawn) [PG, phosphatidylglycerol], the liposome binding result in assay [1] is on record as “unable to bind”.
As to `CCCCCC(=O)O[C@H](COC(=O)CCCCCNC(=O)CCCC[C@@H]1SC[C@@H]2NC(=O)N[C@@H]21)COP(=O)(O)O[C@H]1[C@H](O)[C@@H](O)[C@H](OP(=O)(O)O)[C@@H](O)[C@H]1O` [reference compound], in assay [2], the liposome binding result is listed as “lost the ability to bind”.
In assay [3], phosphatidylcholine [PC] had a negative-log EC50 (pEC50) of 5.96.
In assay [3], phosphatidylethanolamine [PE] had a negative logarithm of the EC50 (pEC50) of 5.28. Further, the liposome binding result in assay [4] and in assay [5] was “showed binding” each time.

The term pEC50 denotes the negative decadic logarithm of the EC50, by convention in mol/L. A high value points to a small EC50.
